Laboratory results reported in paper PMC10660663.

Experiments:
[1] = SuFEx S-O bond formation: di-sulfonimidoyl fluoride (mixture of diastereomers) + diphenol (1:1), DBU 2.1 equiv, [1+1] macrocyclisation, one pot; conditions: the molecule shown is the open-chain precursor, MeCN, 20.0 mM, 50.0 °C, 3.0 h
[2] = Enantiospecific SuFEx S-O bond formation: enantiopure di-sulfonimidoyl fluoride + sodium diphenolate (1:1), [1+1] macrocyclisation, one pot; conditions: the molecule shown is the open-chain precursor, MeCN, 12.5 mM, 60.0 °C, 6.0 h

Cc1ccc(S(=O)(F)=NC(=O)c2ccc(C(=O)N=S(=O)(Oc3ccc(C(C)(C)c4cccc(C(C)(C)c5ccc(O)cc5)c4)cc3)c3ccc(C)cc3)cc2)cc1 (stereo not shown)
ring closure, isolated yield ([1]; 25-membered ring): 74%

Cc1ccc(S(=O)(F)=NC(=O)c2ccc(C(=O)N=S(=O)(Oc3ccc(SSc4ccc(O)cc4)cc3)c3ccc(C)cc3)cc2)cc1 (stereo not shown) [3a]
ring closure, isolated yield ([1]; 22-membered ring): 96%

CCC(c1ccc(O)cc1)C(CC)c1ccc(OS(=O)(=NC(=O)c2ccc(C(=O)N=S(=O)(F)c3ccc(C)cc3)cc2)c2ccc(C)cc2)cc1 (stereo not shown) [3b]
ring closure, isolated yield ([1]; 22-membered ring): 61%

Cc1ccc([S@](=O)(F)=NC(=O)c2ccc(Oc3ccc(C(=O)N=[S@](=O)(Oc4ccc(Cc5ccc([O-])cc5)cc4)c4ccc(C)cc4)cc3)cc2)cc1 [(R,R)-3Aa]
ring closure, isolated yield ([2]; 26-membered ring): 12%

Cc1ccc([S@](=O)(F)=NC(=O)c2ccc(Oc3ccc(C(=O)N=[S@](=O)(Oc4ccc(Oc5ccc([O-])cc5)cc4)c4ccc(C)cc4)cc3)cc2)cc1 [(R,R)-3Ab]
ring closure, isolated yield ([2]; 26-membered ring): 10%

Cc1ccc([S@](=O)(F)=NC(=O)c2ccc(Oc3ccc(C(=O)N=[S@](=O)(Oc4ccc(C(C)(C)c5ccc([O-])cc5)cc4)c4ccc(C)cc4)cc3)cc2)cc1 [(R,R)-3Ac]
ring closure, isolated yield ([2]; 26-membered ring): 14%

Cc1ccc([S@](=O)(F)=NC(=O)c2ccc(Oc3ccc(C(=O)N=[S@](=O)(Oc4ccc(C(c5ccc([O-])cc5)(C(F)(F)F)C(F)(F)F)cc4)c4ccc(C)cc4)cc3)cc2)cc1 [(R,R)-3Ad]
ring closure, isolated yield ([2]; 26-membered ring): 12%

Cc1ccc([S@](=O)(F)=NC(=O)c2ccc(C(=O)N=[S@](=O)(Oc3ccc(C(C)(C)c4cccc(C(C)(C)c5ccc([O-])cc5)c4)cc3)c3ccc(C)cc3)cc2)cc1 [(R,R)-3c]
ring closure, isolated yield ([2]; 25-membered ring): 35%

Cc1ccc([S@](=O)(F)=NC(=O)c2ccc(Oc3ccc(C(=O)N=[S@](=O)(Oc4ccc(C(C)(C)c5cccc(C(C)(C)c6ccc([O-])cc6)c5)cc4)c4ccc(C)cc4)cc3)cc2)cc1 [(R,R)-3o (diphenyl ether)]
ring closure, isolated yield ([2]; 30-membered ring): 65%

Cc1ccc([S@](=O)(F)=NC(=O)c2ccc(C(=O)N=[S@](=O)(Oc3ccc(Cc4ccc([O-])cc4)cc3)c3ccc(C)cc3)cc2)cc1 [(R,R)-3u]
ring closure, isolated yield ([2]; 21-membered ring): 42%

Cc1ccc([S@](=O)(F)=NC(=O)c2ccc(C(=O)N=[S@](=O)(Oc3ccc(Oc4ccc([O-])cc4)cc3)c3ccc(C)cc3)cc2)cc1 [(R,R)-3v]
ring closure, isolated yield ([2]; 21-membered ring): 26%

Cc1ccc([S@](=O)(F)=NC(=O)c2ccc(C(=O)N=[S@](=O)(Oc3ccc(C(C)(C)c4ccc([O-])cc4)cc3)c3ccc(C)cc3)cc2)cc1 [(R,R)-3w]
ring closure, isolated yield ([2]; 21-membered ring): 54%

Cc1ccc([S@](=O)(F)=NC(=O)c2ccc(C(=O)N=[S@](=O)(Oc3ccc(C(c4ccc([O-])cc4)(C(F)(F)F)C(F)(F)F)cc3)c3ccc(C)cc3)cc2)cc1 [(R,R)-3x]
ring closure, isolated yield ([2]; 21-membered ring): 35%

Cc1ccc([S@](=O)(F)=NC(=O)c2ccc(-c3ccc(C(=O)N=[S@](=O)(Oc4ccc(C(C)(C)c5cccc(C(C)(C)c6ccc([O-])cc6)c5)cc4)c4ccc(C)cc4)cc3)cc2)cc1 [(R,R)-3y]
ring closure, isolated yield ([2]; 29-membered ring): 27%

Cc1ccc([S@@](=O)(F)=NC(=O)c2ccc(Oc3ccc(C(=O)N=[S@@](=O)(Oc4ccc(Cc5ccc([O-])cc5)cc4)c4ccc(C)cc4)cc3)cc2)cc1 [(S,S)-3Aa]
ring closure, isolated yield ([2]; 26-membered ring): 12%

Cc1ccc([S@@](=O)(F)=NC(=O)c2ccc(Oc3ccc(C(=O)N=[S@@](=O)(Oc4ccc(Oc5ccc([O-])cc5)cc4)c4ccc(C)cc4)cc3)cc2)cc1 [(S,S)-3Ab]
ring closure, isolated yield ([2]; 26-membered ring): 14%

Cc1ccc([S@@](=O)(F)=NC(=O)c2ccc(Oc3ccc(C(=O)N=[S@@](=O)(Oc4ccc(C(C)(C)c5ccc([O-])cc5)cc4)c4ccc(C)cc4)cc3)cc2)cc1 [(S,S)-3Ac]
ring closure, isolated yield ([2]; 26-membered ring): 16%

Cc1ccc([S@@](=O)(F)=NC(=O)c2ccc(Oc3ccc(C(=O)N=[S@@](=O)(Oc4ccc(C(c5ccc([O-])cc5)(C(F)(F)F)C(F)(F)F)cc4)c4ccc(C)cc4)cc3)cc2)cc1 [(S,S)-3Ad]
ring closure, isolated yield ([2]; 26-membered ring): 20%

Cc1ccc([S@@](=O)(F)=NC(=O)c2ccc(C(=O)N=[S@@](=O)(Oc3ccc(SSc4ccc([O-])cc4)cc3)c3ccc(C)cc3)cc2)cc1 [(S,S)-3a]
ring closure, isolated yield ([2]; 22-membered ring): 93%

Cc1ccc([S@@](=O)(F)=NC(=O)c2ccc(C(=O)N=[S@@](=O)(Oc3ccc(C(C)(C)c4cccc(C(C)(C)c5ccc([O-])cc5)c4)cc3)c3ccc(C)cc3)cc2)cc1 [(S,S)-3c]
ring closure, isolated yield ([2]; 25-membered ring): 42%

Cc1ccc([S@@](=O)(F)=NC(=O)c2ccc(C(=O)N=[S@@](=O)(Oc3cccc(Oc4cccc(Oc5cccc([O-])c5)c4)c3)c3ccc(C)cc3)cc2)cc1 [(S,S)-3d]
ring closure, isolated yield ([2]; 23-membered ring): 71%

Cc1ccc([S@@](=O)(F)=NC(=O)c2ccc(C(=O)N=[S@@](=O)(Oc3ccccc3CNCCNCc3ccccc3[O-])c3ccc(C)cc3)cc2)cc1 [(S,S)-3f]
ring closure, isolated yield ([2]; 22-membered ring): 75%

Cc1ccc([S@@](=O)(F)=NC(=O)c2ccc(Oc3ccc(C(=O)N=[S@@](=O)(Oc4cccc(Oc5cccc(Oc6cccc([O-])c6)c5)c4)c4ccc(C)cc4)cc3)cc2)cc1 [(S,S)-3k]
ring closure, isolated yield ([2]; 28-membered ring): 85%

Cc1ccc([S@@](=O)(F)=NC(=O)c2ccc(Oc3ccc(C(=O)N=[S@@](=O)(Oc4ccc(C(C)(C)c5cccc(C(C)(C)c6ccc([O-])cc6)c5)cc4)c4ccc(C)cc4)cc3)cc2)cc1 [(S,S)-3o (diphenyl ether)]
ring closure, isolated yield ([2]; 30-membered ring): 64%

Cc1ccc([S@@](=O)(F)=NC(=O)c2cccc(C(=O)N=[S@@](=O)(Oc3ccc(SSc4ccc([O-])cc4)cc3)c3ccc(C)cc3)n2)cc1 [(S,S)-3r]
ring closure, isolated yield ([2]; 21-membered ring): 71%

Cc1ccc([S@@](=O)(F)=NC(=O)c2ccc(C(=O)N=[S@@](=O)(Oc3ccc(Cc4ccc([O-])cc4)cc3)c3ccc(C)cc3)cc2)cc1 [(S,S)-3u]
ring closure, isolated yield ([2]; 21-membered ring): 54%

Cc1ccc([S@@](=O)(F)=NC(=O)c2ccc(C(=O)N=[S@@](=O)(Oc3ccc(Oc4ccc([O-])cc4)cc3)c3ccc(C)cc3)cc2)cc1 [(S,S)-3v]
ring closure, isolated yield ([2]; 21-membered ring): 34%

Cc1ccc([S@@](=O)(F)=NC(=O)c2ccc(C(=O)N=[S@@](=O)(Oc3ccc(C(C)(C)c4ccc([O-])cc4)cc3)c3ccc(C)cc3)cc2)cc1 [(S,S)-3w]
ring closure, isolated yield ([2]; 21-membered ring): 62%

Cc1ccc([S@@](=O)(F)=NC(=O)c2ccc(C(=O)N=[S@@](=O)(Oc3ccc(C(c4ccc([O-])cc4)(C(F)(F)F)C(F)(F)F)cc3)c3ccc(C)cc3)cc2)cc1 [(S,S)-3x]
ring closure, isolated yield ([2]; 21-membered ring): 33%

Cc1ccc([S@@](=O)(F)=NC(=O)c2ccc(-c3ccc(C(=O)N=[S@@](=O)(Oc4ccc(C(C)(C)c5cccc(C(C)(C)c6ccc([O-])cc6)c5)cc4)c4ccc(C)cc4)cc3)cc2)cc1 [(S,S)-3y]
ring closure, isolated yield ([2]; 29-membered ring): 37%

Cc1ccc([S@@](=O)(F)=NC(=O)c2ccc(-c3ccc(C(=O)N=[S@@](=O)(Oc4ccc(Cc5ccc([O-])cc5)cc4)c4ccc(C)cc4)cc3)cc2)cc1 [[1+1] of 4f (not observed)]
ring closure, isolated yield ([2]; 25-membered ring): 0%

Cc1ccc([S@@](=O)(F)=NC(=O)c2ccc(-c3ccc(C(=O)N=[S@@](=O)(Oc4ccc(Oc5ccc([O-])cc5)cc4)c4ccc(C)cc4)cc3)cc2)cc1 [[1+1] of 4g (not observed)]
ring closure, isolated yield ([2]; 25-membered ring): 0%

Cc1ccc([S@@](=O)(F)=NC(=O)c2ccc(-c3ccc(C(=O)N=[S@@](=O)(Oc4ccc(C(C)(C)c5ccc([O-])cc5)cc4)c4ccc(C)cc4)cc3)cc2)cc1 [[1+1] of 4i (not observed)]
ring closure, isolated yield ([2]; 25-membered ring): 0%

Cc1ccc([S@@](=O)(F)=NC(=O)c2ccc(-c3ccc(C(=O)N=[S@@](=O)(Oc4ccc(C(c5ccc([O-])cc5)(C(F)(F)F)C(F)(F)F)cc4)c4ccc(C)cc4)cc3)cc2)cc1 [[1+1] of 4j (not observed)]
ring closure, isolated yield ([2]; 25-membered ring): 0%
